Data set [1] relates to patients with bipolar depression. As to conditions: monotherapeutic agent; cited from earlier work.
The test system is the same in data set [2]. As to conditions: 8 week trial; difference not statistically significant; cited from earlier work.
For data set [3] the test system is unchanged. The following applies: 7-week trial, patients who completed the study; cited from earlier work.
For data set [4] the test system is unchanged. As to conditions: both doses, p<0.001.
Data set [5] shares this test system. As to conditions: for Change in MADRS, Mean (SD): Bipolar I.
From the text: (§1) The treatment was with quetiapine or placebo. There were 43% male and 57% female patients. The demographics also included 67% bipolar I and 33% bipolar II.
For data set [6] the test system is unchanged. As to conditions: for Improvement in mean HAM-A score: endpoint (Week 8), P<0.05 vs placebo.
From the text: as §1
For data set [7] the test system is unchanged.
Data set [8] has the same test system. The source says: Criteria for Emergent Mania (any one of the following): AE (Adverse Event) or SAE
(Serious Adverse Event) of Mania. Withdrawal for AE of mania. YMRS (Young Mania Rating Scale) ≧16 on 2 consecutive or final assessment.
The source holds these as a separate data set.

For data set [9] the test system is unchanged. The source holds these as a separate data set.
From the text: as §1
Data set [10] shares this test system. This is another data set of the same source.
From the text: as §1
For data set [11] the test system is unchanged. This is another data set of the same source.
From the text: as §1
Setting [12] is: OC (completer) population, 300 mg/day.
The mark [13] stands for this setting: OC (completer) population, 600 mg/day.
The mark [14] stands for this setting: treatment of bipolar depression.

Counter-ions that a name gives are not always drawn. Like-named read-outs stand apart in the source and are kept apart here. Marks after values point to notes of the source that are not given here.

Turning to `O=C([O-])[O-].[Li+].[Li+]` [Lithium carbonate], the “Patients with bipolar depression in whom monotherapy is effective” value in data set [1] is “approximately 50%”.

`CCCC(CCC)C(=O)O` [divalproex]: the “Percentage of patients with a 50% reduction in HAM-D scores without mania” value in [2] is reported as “numerical improvement over placebo”.

For the compound `Nc1nnc(-c2cccc(Cl)c2Cl)c(N)n1` [lamotrigine], the “HAM-D and MADRS scores” value in [3] was “produced improvement in HAM-D and MADRS scores”.

With `OCCOCCN1CCN(C2=Nc3ccccc3Sc3ccccc32)CC1` [quetiapine, 2-[2-(4-dibenzo [b,f] 1,4]thiazepin-11-yl-1-piperazinyl)ethoxy]-ethanol fumarate], in data set [4], the “Clinical Improvement (CGI)” value is reported as “Clinical Improvement (CGI) in both doses from Day 8 on”. Moreover, the MADRS effect size in data set [5] (Bipolar I & II) worked out at 0.6. The “Change in MADRS, Mean (SD)” value is listed as −17.1 (9.7) in [5] (ITT population, 300 mg/day) and −18.2 (11.0) in data set [5] (ITT population, 600 mg/day). Moreover, the “MADRS Change” value in [5] (ITT population, 300 mg/day) was −16.5; in [5] (ITT population, 600 mg/day) it was −16.8; in data set [5] (setting [12]), −18.6; in data set [5] (setting [13]), −20.3. Further, the “Efficacy against depressive symptoms (MADRS and HAM-D)” value in data set [5] (both doses, p<0.001) is “Efficacy against depressive symptoms in both doses from Day 8 on”. Also, the “Advantage over placebo, MADRS Responder analysis” value in data set [5] (in vivo) is on record as 20%. For the same compound, the “Advantage over placebo, remission analysis” value in data set [5] (in vivo) is reported as 20%. In addition, the “Improvement in mean HAM-A score” value in data set [6] (about 300 mg/day) is −8.6; in data set [6] (about 600 mg/day), −8.7. Moreover, in data set [6] (both doses, p<0.01), the “Efficacy in anxiety symptoms (HAM-A)” value was “Efficacy in anxiety symptoms (HAM-A) in both doses from Day 8 on”. The “Q-LES-Q change (Δ), Mean (SD)” value is 8.6 (9.6)^a in data set [7] (Week 4, 300 mg); 11.0 (10.7)* in [7] (Week 4, 600 mg); 11.7 (10.4)^a in data set [7] (Week 8, 300 mg); 16.3 (10.3)* in data set [7] (Week 8, 600 mg); 12.2 (11.6)* in data set [7] (Week 8 LOCF, 600 mg). Also, the “Treatment-emergent mania, number of patients” value turned out to be 6 in [8] (300 mg) and 4 in [8] (600 mg). In addition, the entries for the “Treatment-emergent mania, percent of patients” value in [8] (300 mg) and in data set [8] (600 mg) were 3.5% and 2.4%, respectively. The “Association with treatment-emergent mania (switching)” value in [8] (setting [14]) is on record as “not associated with treatment-emergent mania”. For the same compound, the “PSQI change (Δ), Mean (SD)” value is on record as −4.7 (4.2)* in [9] (Week 4, 300 mg); −5.3 (4.9)* in data set [9] (Week 4, 600 mg); −5.3 (4.3)* in data set [9] (Week 8, 300 mg); −6.4 (4.3)* in [9] (Week 8, 600 mg); −5.1 (4.3)* in data set [9] (Week 8 LOCF, 300 mg); −5.5 (4.8)* in data set [9] (Week 8 LOCF, 600 mg). Also, the “Sleep component: Sleep disturbance, Mean (SD)” value was 1.1 (0.6) in data set [9] (Week 8 LOCF, 300 mg) and 1.2 (0.7) in data set [9] (Week 8 LOCF, 600 mg). In addition, the “Sleep component: Sleep duration, Mean (SD)” value in [9] (Week 8 LOCF, 300 mg) is on record as 0.7 (0.8); in [9] (Week 8 LOCF, 600 mg), 0.5 (0.8). In addition, the “Sleep component: Sleep dysfunction, Mean (SD)” value in [9] (Week 8 LOCF, 300 mg) is 1.3 (0.9); in data set [9] (Week 8 LOCF, 600 mg), 1.4 (0.9). For the same compound, the “Sleep component: Sleep latency, Mean (SD)” value in data set [9] (Week 8 LOCF, 300 mg) is 1.3 (1.0); in [9] (Week 8 LOCF, 600 mg), 1.3 (1.1). The “Sleep component: Sleep medication, Mean (SD)” value in data set [9] (Week 8 LOCF, 300 mg) was 0.4 (0.9); in data set [9] (Week 8 LOCF, 600 mg), 0.4 (0.9). For the same compound, the “Sleep component: Sleep quality, Mean (SD)” value was 1.0 (0.8) in data set [9] (Week 8 LOCF, 300 mg) and 0.8 (0.8) in [9] (Week 8 LOCF, 600 mg). The Adverse event trends entry in [10] (in vivo) was “No unexpected AE trends”. Besides, in [10] (in vivo), the Changes in weight entry is on record as “Small dose related changes in weight”. Also, the Tolerability entry in data set [10] (setting [14]) was “well-tolerated in the treatment of bipolar depression with a low incidence of EPS (extrapyramidal symptoms), prolactin, sexual dysfunction and weight gain”. Further, the “HAM-D Change” value in data set [11] (ITT population, 300 mg/day) is −13.4; in data set [11] (ITT population, 600 mg/day) it was −13.9; in data set [11] (setting [12]) it was −15.0; in data set [11] (setting [13]), −17.0.
